# Measurements reported in US20260345596A1, “TREATMENT OF LOCALLY ADVANCED OR METASTATIC UROTHELIAL CARCINOMA WITH ERDAFINITIB” (priority 2023, published 2026).
# Assays:
# [1] = in vivo; cited from earlier work
# [2] = test system: locally advanced or metastatic urothelial carcinoma with selected FGFR3 alterations; assay: Study BLC3001 Cohort 2: efficacy of BALVERSA versus pembrolizumab; type: in vivo, human; conditions: (95% CI)
# Experimental: Subjects are assigned to Cohort 1 or Cohort 2 based upon prior treatment with an anti-PD-(L)1 agent. […] Cohort 1 and Cohort 2 are assessed independently.
compound,measurement,setting,value
CC(=O)O[C@@]12CO[C@@H]1C[C@H](O)[C@@]1(C)C(=O)[C@H](O)C3=C(C)[C@@H](OC(=O)[C@H](O)[C@@H](NC(=O)OC(C)(C)C)c4ccccc4)C[C@@](O)([C@@H](OC(=O)c4ccccc4)[C@H]21)C3(C)C [Docetaxel],Cystoid macular edema,[1],Cystoid macular edema has been reported
same,Severe fluid retention,[1],Severe fluid retention has been reported
CC[C@]12C=CCN3CC[C@@]4(c5cc([C@@]6(C(=O)OC)C[C@@H]7C[C@@H](C(C)(F)F)CN(Cc8c6[nH]c6ccccc86)C7)c(OC)cc5N(C)[C@H]4[C@@](O)(C(=O)OC)[C@@H]1OC(C)=O)[C@@H]32 [Vinflunine],Posterior reversible encephalopathy syndrome (PRES),[1],Cases of posterior reversible encephalopathy syndrome (PRES) have been observed
"Pembrolizumab: anti-PD-(L)1 agent pembrolizumab, 200 mg every 3 weeks",Median OS,[2],"11.1 (95% CI: 9.7, 13.6) months"
